pKi: −log10 of the molar value. Counter-ions that a name gives are not always drawn. Like-named read-outs stand apart in the source and are kept apart here.
How the values were obtained:
[1] = biological target: T1, type II dehydroquinase from Helicobacter pylori (Helicobacter pylori, UniProt Q48255); experiment: Inhibition of type II dehydroquinase from Helicobacter pylori (Ki); assay type: biochemical
T1 sequence (Q48255 1-167): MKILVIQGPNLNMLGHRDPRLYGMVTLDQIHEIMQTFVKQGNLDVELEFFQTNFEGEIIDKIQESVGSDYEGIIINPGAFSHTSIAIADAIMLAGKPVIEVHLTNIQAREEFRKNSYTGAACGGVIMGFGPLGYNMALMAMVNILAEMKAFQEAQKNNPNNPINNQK
Protocol: (§1) Effect of compounds of formula I of the invention on the catalytic activity of the type II dehydroquinase from various sources. The inhibitory potency of compounds I of the invention against type II dehydroquinases from Mycobacterium tuberculoris, Streptomyces coelicolor and Helicobacter pylori were assayed as it is described in the following articles: 1) Sanchez-Sixto, C.; Prazeres, V. F. V.; Castedo, L.; Lamb, H.; Hawkins, A. R.; Gonzalez-Bello, C. J. Med. Chem. 2005, 48, 4871; 2) Prazeres, V. F. V.; Sanchez-Sixto, C.; Castedo, L.; Lamb, H.; Hawkins, A. R.; Riboldi-Tunnicliffe; Coggins, J. R.; Lapthorn, A. J.; González-Bello, C. Chem Med Chem 2007, 2, 194; and 3) Sanchez-Sixto, C.; Prazeres, V. F. V.; Castedo, L.; S. W. Suh, Lamb, H.; Hawkins, A. R.; Canada, F. J.; Jiménez-Barbero, J.; González-Bello, C. Chem Med Chem 2008, 3, 756.

[2] = biological target: type II dehydroquinase from Streptomyces coelicolor (Streptomyces coelicolor, UniProt P15474); experiment: Inhibition of type II dehydroquinase from Streptomyces coelicolor (Ki); assay type: biochemical
type II dehydroquinase from Streptomyces coelicolor, sequence (P15474 whole entry): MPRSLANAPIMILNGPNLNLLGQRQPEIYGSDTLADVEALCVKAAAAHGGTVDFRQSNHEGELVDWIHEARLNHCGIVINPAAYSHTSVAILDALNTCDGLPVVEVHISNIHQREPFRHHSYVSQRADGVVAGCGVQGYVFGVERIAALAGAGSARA
Protocol: as §1

[3] = biological target: type II dehydroquinase from Mycobacterium tuberculosis (Mycobacterium tuberculosis, UniProt P9WPX7); experiment: biochemical
type II dehydroquinase from Mycobacterium tuberculosis, sequence (P9WPX7 whole entry): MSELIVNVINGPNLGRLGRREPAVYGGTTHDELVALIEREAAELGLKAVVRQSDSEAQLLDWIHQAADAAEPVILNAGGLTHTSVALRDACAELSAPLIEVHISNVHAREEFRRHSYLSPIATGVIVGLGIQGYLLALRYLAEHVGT
Protocol: as §1

[4] = pH = 7.0, 25° C., 50 mM Tris•HCl, read-out: Inhibition constants Ki, H. pylori
[5] = Inhibition constants Ki, S. coelicolor, pH = 7.0, 25° C., 50 mM Tris•HCl
[6] = Inhibition constants Ki, M. tuberculosis, pH = 7.0, 25° C., 50 mM Tris•HOAc
[7] = inhibition constants against Mycobacterium tuberculosis
[8] = pH = 7.0, 25° C., 50 mM Tris•HOAc, read-out: Inhibition constants Ki, M. tuberculosis
[9] = pH = 7.0, 25° C., 50 mM Tris•HCl, read-out: Inhibition constants Ki, S. coelicolor
[10] = Inhibition constants Ki, H. pylori, pH = 7.0, 25° C., 50 mM Tris•HCl

| Compound | pKi [1, 4] | pKi [2, 5] | pKi [2, 9] | further results |
| --- | --- | --- | --- | --- |
| C/C=C/c1cc2c(s1)[C@@H](OC(C)=O)[C@H](OC(C)=O)C[C@]2(OC(C)=O)C(=O)OC | – | – | – | melting point: 140 to 143 °C |
| CCOC(=O)[C@@]1(O)C[C@@H](O)[C@H](O)c2sc(CCc3ccccc3)cc21 | – | – | – | melting point: 118 to 120 °C |
| COC(=O)[C@@]1(O)C[C@@H](O)[C@H](O)c2sc(C)cc21 | – | – | – | melting point: 87 to 92 °C |
| CC(C)c1cc2c(s1)[C@@H](O)[C@H](O)C[C@]2(O)C(=O)O | – | – | – | melting point: 125 to 127 °C |
| O=C(O)[C@@]1(O)C[C@@H](O)[C@H](O)C(OCc2cccs2)=C1Cc1cccs1 (as salt: sodium) (hydrate or solvate) [Ib-8] | – | – | – | melting point: 178 to 181 °C |
| O=C(O)[C@]1(O)C=C(OCc2ccc3ccccc3c2)[C@@H](O)[C@H](O)C1 (as salt: sodium) (hydrate or solvate) [Ib-.10, Sodium (1R,4S,5R)-1,4-trihydroxy-3-(2-naphyl)methoxycyclohex-2-en-1-carboxylate] | – | – | – | melting point: 54 °C (dec.) |
| C=CC[C@H]1C(=O)[C@@H](O)[C@H](O)C[C@]1(O)C(=O)O (hydrate or solvate) [(2R)-Ia-1, (2R)-2-allyl-3-dehydroquinic acid] | – | – | – | melting point: 144 to 148 °C |
| C=CC[C@@H]1C(=O)[C@@H](O)[C@H](O)C[C@]1(O)C(=O)O (hydrate or solvate) [(2S)-Ia-1, (2S)-2-allyl-3-dehydroquinic acid] | – | – | – | melting point: 127 to 130 °C |
| Cc1ccc(CC2C(=O)C(O)C(O)CC2(O)C(=O)O)cc1 (single isomer, unassigned) [(2R)-Ia-4] | 6.60 | 7.66 | – | pKi [3, 6]: 7.05 |
| COc1ccc(CC2C(=O)C(O)C(O)CC2(O)C(=O)O)cc1 (single isomer, unassigned) [(2R)-Ia-5] | 6.77 | 7.47 | – | times more effective than 2,3-dehydroquinic acid, M. tuberculosis ([3]; Ki ratio): 8000 times; times more affinity with respect of the natural substrate, M. tuberculosis ([3]; Km of substrate / Ki): 1600 times; pKi [3, 7]: 7.60 |
| O=C1C(O)C(O)CC(O)(C(=O)O)C1Cc1c(F)c(F)c(F)c(F)c1F (single isomer, unassigned) [(2R)-Ia-6] | 5.59 | 6.62 | – | pKi [3, 6]: 7.33 |
| O=C1C(O)C(O)CC(O)(C(=O)O)C1Cc1ccc2sccc2c1 (single isomer, unassigned) [(2R)-Ia-7] | 6.80 | 8.40 | – | pKi [3, 6]: 7.54 |
| O=C1C(O)C(O)CC(O)(C(=O)O)C1Cc1c(F)c(F)c(F)c(F)c1F (single isomer, unassigned) [(2S)-Ia-6] | – | 8.19 | – | pKi [3, 6]: 7.13 |
| C=CC[C@H]1C(=O)[C@@H](O)[C@H](O)C[C@]1(O)C(=O)O [(2R)-Ia-1, (2R)-2-allyl-3-dehydroquinic acid] | 5.03 | 4.99 | – | pKi [3, 8]: 6.12 |
| CCCC1C(=O)C(O)C(O)CC1(O)C(=O)O [(2R)-Ia-2, (2R)-2-propyl-3-dehydroquinic acid] | 4.70 | 4.12 | – | pKi [3, 8]: 5.77 |
| C=CC[C@@H]1C(=O)[C@@H](O)[C@H](O)C[C@]1(O)C(=O)O [(2S)-Ia-1, (2S)-2-allyl-3-dehydroquinic acid] | 4.67 | 5.17 | – | pKi [3, 8]: 5.73 |
| O=C(O)[C@]1(O)C=C(OCc2cc3ccccc3s2)[C@@H](O)[C@H](O)C1 [Ib-1, Sodium (1R, 4S, 5R)-3-(benzo[b]thiophen-2-yl)methoxy-1,4,5-trihydroxycyclohex-2-en-1-carboxylate] | 6.80 | – | 9.32 | pKi ([2]; read-out: affinities in the case of S. coelicolor): 9.32; pKi [3, 7]: 8.49 |

| Compound | pKi [1, 4] | pKi [2, 5] | pKi [2, 9] | further results |
| --- | --- | --- | --- | --- |
| O=C(O)C1(O)CC(O)C(O)C(OCc2cc3ccccc3s2)=C1Cc1cc2ccccc2s1 (centres unmarked) [Ib-2] | 6.85 | 8.55 | – | pKi [3, 6]: 8.37 |
| Cc1ccc2sc(COC3=C[C@@](O)(C(=O)O)C[C@@H](O)[C@@H]3O)cc2c1 [Ib-3, Sodium (1R, 4S, 5R)-1,4,5-trihydroxy-3-(5-methylbenzo[b]thiophen-2-yl)methoxycyclohex-2-en-1-carboxylate] | 7.01 | 8.62 | – | pKi [3, 6]: 7.40 |
| Cc1ccc2sc(COC3=C(Cc4cc5cc(C)ccc5s4)[C@@](O)(C(=O)O)C[C@@H](O)[C@@H]3O)cc2c1 [Ib-4, Sodium (1R, 4S, 5R)-1,4,5-trihydroxy-3-(5-methylbenzo[b]thiophen-2-yl)methoxy-2-(5-methylbenzo[b]thiophen-2-yl)methylcyclohex-2-en-1-carboxylate] | 7.15 | 7.89 | – | pKi [3, 8]: 6.72 |
| C=CCC1=C(OCc2cc3ccccc3s2)[C@@H](O)[C@H](O)C[C@]1(O)C(=O)O [Ib-5, Sodium (1R, 4S, 5R)-2-allyl-3-(benzo[b]thiophen-2-yl)methoxy-1,4,5-tri-hydroxycyclohex-2-en-1-carboxylate] | 5.96 | 7.82 | – | pKi [3, 8]: 5.91 |
| O=C(O)[C@]1(O)C=C(OCc2ccc3sccc3c2)[C@@H](O)[C@H](O)C1 [Ib-7, Sodium (1R,4S,5R)-1,4,5-trihydroxy-3[(benzo[b]thiophen-5-yl)methoxy]cyclohex-2-en-1-carboxylate] | 6.78 | 9.52 | – | pKi [3, 8]: 7.51 |
| O=C(O)[C@@]1(O)C[C@@H](O)[C@H](O)C(OCc2cccs2)=C1Cc1cccs1 [Ib-8] | 4.82 | – | 6.85 | – |
| O=C(O)[C@@]1(O)C[C@@H](O)[C@H](O)C(OCc2ccc3ccccc3c2)=C1Cc1ccc2ccccc2c1 [Ib-11, Sodium (1R,4S,5R)-1,4,5-trihydroxy-3-(naphth-2-yl)methoxy-2-(naphth-2-yl)methylcyclohex-2-en-1-carboxylate] | – | – | 7.49 | – |
| O=C(O)[C@@]1(O)C[C@@H](O)[C@H](O)C(OCc2cccs2)=C1Cc1cc2ccccc2s1 [Ib-12, Sodium (1R,4S,5R)-1,4,5-trihydroxy-3-(thien-2-yl)methoxy-2-(benzo[b]thiophen-2-yl)methylcyclohex-2-en-1-carboxylate] | 7.34 | 6.55 | – | – |
| O=C([O-])[C@@]1(O)C[C@@H](O)[C@H](O)C(OCc2ccc3sccc3c2)=C1Cc1cccs1.[Na+] [Ib-13, Sodium (1R,4S,5R)-1,4,5-trihydroxy-3-(benzo[b]thiophen-5-yl)methoxy-2-(thien-2-yl)methylcyclohex-2-en-1-carboxylate] | – | 6.55 | – | times more effective than the 2,3-dehydroquinic acid, H. pylori ([1]; Ki ratio): 16.190 times; times more affinity with respect of the natural substrate, H. pylori ([1]; Km of substrate / Ki): about 21.000 times; pKi ([1]; read-out: affinities in the case of H. pylori): 7.68 |
| O=C(O)[C@]1(O)C=C(OCc2ccc3ccccc3c2)[C@@H](O)[C@H](O)C1 [Ib-.10, Sodium (1R,4S,5R)-1,4-trihydroxy-3-(2-naphyl)methoxycyclohex-2-en-1-carboxylate] | – | – | > 9.59 | – |
| Cc1cc2c(s1)[C@@H](O)[C@H](O)C[C@]2(O)C(=O)O [Ic-2, (4R, 6R, 7S)-4,6,7-trihydroxy-2-methyl-4,5,6,7-tetrahydrobenzo[b]thiophen-4-carboxylic acid] | – | – | 5.50 | pKi [1, 10]: 5.80; pKi [3, 6]: 6.40 |
| C=Cc1cc2c(s1)[C@@H](O)[C@H](O)C[C@]2(O)C(=O)O [Ic-3, (4R, 6R, 7S)-4,6,7-trihydroxy-2-vinyl-4,5,6,7-tetrahydrobenzo[b]thiophen-4-carboxylic acid] | – | – | 6.09 | pKi [1, 10]: 5.90; pKi [3, 6]: 7.28 |
| C/C=C/c1cc2c(s1)[C@@H](O)[C@H](O)C[C@]2(O)C(=O)O [Ic-4, (4R, 6R, 7S)-4,6,7-trihydroxy-2-[(E)-prop-1-enyl]-4,5,6,7-tetrahydrobenzo[b]thiophen-4-carboxylic acid] | – | – | 7.03 | pKi [1, 10]: 6.46; pKi [3, 6]: 7.01 |
| C=C(C)c1cc2c(s1)[C@@H](O)[C@H](O)C[C@]2(O)C(=O)O [Ic-5] | – | – | 5.73 | pKi [1, 10]: 4.42; pKi [3, 6]: 6.07 |
| C=C(c1ccccc1)c1cc2c(s1)[C@@H](O)[C@H](O)C[C@]2(O)C(=O)O [Ic-10, (4R,6R,7S)-4,6,7-trihydroxy-2-(1-phenylvinyl)-4,5,6,7-tetrahydro-benzo[b]thiophen-4-carboxylic acid] | – | – | 5.33 | pKi [1, 10]: 4.69 |
| O=C(O)[C@@]1(O)C[C@@H](O)[C@H](O)c2sc(CCc3ccccc3)cc21 [Ic-12, (4R,6R,7S)-4,6,7-trihydroxy-2-phenethyl-4,5,6,7-tetrahydrobenzo[b]thiophene-4-carboxylic acid] | – | – | 7.34 | pKi [1, 10]: 5.77 |
| CCCc1cc2c(s1)[C@@H](O)[C@H](O)C[C@]2(O)C(=O)O [Ic-13, (4R,6R,7S)-4,6,7-trihydroxy-2-propyl-4,5,6,7-tetrahyclrobenzo[b]thiophene-4-carboxylic acid] | – | – | 7.66 | pKi [1, 10]: 6.92 |

From patent US20110313032A1, “COMPETITIVE INHIBITORS OF TYPE II DEHYDROQUINASE ENZYME” (priority 2008, published 2011)
